Assay results reported in patent US9849189B2, “Targeted delivery of antimicrobial agents” (George Mason Research Foundation, Inc., priority 2008, dated 2017).
Where two headings read alike, the source gives them in different places. No end group written: not given here.

Assays:
K12 E. coli = format: cell-based
Procedure: The antimicrobial activities of the peptides and their acetylated derivatives may be assessed using K-12 E. coli and assays based on an existing protocol used to study derivatives of hBD-3. The bacteria may be grown to mid-log phase in Luria Bertani (LB) broth. Aliquots of the culture may then be diluted (to a cell density of about 10^6 CFU/ml) into 10 mM sodium phosphate at a pH of about 7.5. Each of the aliquots may contain varied concentrations of peptide or acetylated peptide. The diluted bacterial cultures may then be incubated for about 2 hours at a temperature of about 37° C. After the proscribed time, serial dilutions of the assay cultures may be plated onto LB agar plates, and then allowed to incubate overnight at a temperature of about 37° C. After incubating, colonies may be counted. Dose-response curves may be prepared to calculate EC50's.
The antibacterial activities of the free and acetylated peptides may be determined using K12 E. coli and a known assay protocol. Bacteria may be incubated in Luria Bertani broth at 37° C. until reaching an OD600 of ˜0.8-˜1.1. Cell density may be monitored using optical density at 600 nm. Cells were then diluted to a concentration of 10^6 CFU/ml in ˜10 mM sodium phosphate (pH ˜7.5), containing varied concentrations of peptide or acetylated peptide. Peptide concentration used in the assays may range from 0 μg/ml to ˜100 μg/ml with intermediate concentrations varied for each peptide in order to maximize the number of data points in or near the transition region.
Assay cultures may be incubated at 37° C. for about two hours. Afterwards, serial dilutions of each assay culture may be prepared and then plated in triplicate onto Luria Bertani broth plates. The plates may be incubated at 37° C. overnight (˜16 h). Colonies may be counted the following morning.
Bacterial survival at each peptide concentration may be calculated according to the ratio of the number of colonies on the plates corresponding to the peptide concentration and the average number of colonies observed for assay cultures lacking peptide. The peptide concentration required to kill ˜50% of tile viable E. coli in the assay cultures (EC50) may be determined by plotting percent survival as a function of the log of peptide concentration (log μg/ml) and fitting the data, using GraphPad Prism (GraphPad Software, Inc., San Diego, Calif.), to Equation (1), which describes a sigmoidal dose-response.
In Equation (1), S is percent survival, ST and SB represent the upper and lower survival boundaries, X is the log of the peptide concentration, and H is the Hill slope of the transition region.
In fitting the data for all peptides and acetylated peptides (except acetylated Pep-1 and acetylated Pep-3), ST and SB may be restricted to values≦100% and ≧0% respectively. For acetylated Pep-1 and acetylated Pep-3, the absence of data points defining the lower boundary necessitated that SB be set to 0% in order to fit the data to Equation (1) and provide an estimated EC50 for these peptides.

horse erythrocytes = format: cell-based
Procedure: Hemolytic activity may be assayed by, for example, incubating horse erythrocytes (e.g., Hemasource Inc. of Eugene, Oreg.). Varied peptide concentrations in phosphate buffered saline (e.g., Cellgro, produced by Mediatech, Inc. of Manassas, Va.) may be used for the incubation process. Hemolysis may be quantified by pelleting cells after incubation using centrifugation, and then measuring the absorbance of the supernatant at about 540 nm.
Hemolytic activities of the free and acetylated peptides may be determined using horse erythrocytes, in an assay adapted to a microtitre plate format. Cells may be prepared by centrifuging ˜1 ml of horse erythrocytes at 1620×g, and then resuspending the pelleted cells in ˜1 ml of 1× Dulbecco's phosphate-buffered saline (Dulbecco's PBS, Mediatech, Manassas, Va.). The cells may then be pelleted again. The process may be repeated (e.g., three more times). Following the final wash, the cells may be resuspended in ˜0.750 ml of PBS. Approximately two hundred microliters of washed erythrocyte suspension may then be diluted into ˜9800 μl of PBS to afford about 2% suspension. Aliquots of sterile water, peptide, and Dulbecco's PBS may then be combined in the wells of a 96 well microtitre plate so as to provide a gradient of peptide concentrations (0, ˜0.1, ˜1, ˜10, ˜100, and ˜1,000 μg/ml), to which the ˜2% erythrocyte may be added. […] An aliquot of supernatant (˜150 μl) from each well may then be transferred to a fresh microtitre plate, and the absorbance at ˜540 nm (heme) may be obtained for each solution. The percent hemolysis may be calculated based on the ratio of the absorption of supernatants from wells containing peptide and the absorption of supernatants from wells containing no peptide. In both cases, the recorded absorption may be adjusted for the background absorption of the plates.
Results of these assays appear in FIG. 21. […] Absorbance at 540 nm was used to monitor the release of hemoglobin by horse erythrocytes that have been incubated with varied concentrations of free peptide or acetylated peptide.

[1] = acetylated peptide, K12 E. coli, 10 mM sodium phosphate pH ~7.5, 2 h 37° C., 90% confidence range in parentheses, ‡ estimated values

Substance | antimicrobial potency as percent of free Pep-1 (K12 E. coli; K12 E. coli, from EC50 values) [%] | Antimicrobial Activity (EC50), Free (K12 E. coli; K12, 2 h) | hemolytic activity (in words) (horse erythrocytes) | also measured
Ac-RGRK(Ac)SSRRK(Ac)K(Ac)-NH2 [acetylated Pep-3] | – | – | – | Antimicrobial Activity (EC50), Acetylated (K12 E. coli; [1]): ~70 µg/mL
Ac-RGRK(Ac)SSRRK(Ac)K(Ac)-OH [acetylated Pep-1] | ~5 | – | – | decrease in potency relative to free Pep-1 (K12 E. coli; K12 E. coli, from EC50 values): sixteen; LC90, Acetylated Peptide (E. coli BL21(DE3)): 94.40 µg/mL
Ac-RGRRSSRRK(Ac)K(Ac)-NH2 [acetylated Pep-4] | ~50 | – | – | Antimicrobial Activity (EC50), Acetylated (K12 E. coli; K12, 2 h): 4.9 (4.2-5.8) μg/ml; LC90, Acetylated Peptide (E. coli BL21(DE3)): 1.49 µg/mL
Ac-RGRRSSRRK(Ac)K(Ac)-OH [acetylated Pep-2] | ~25 | – | – | Antimicrobial Activity (EC50), Acetylated (K12 E. coli; K12, 2 h): ~8.1 µg/mL; Antimicrobial Activity (EC50), Acetylated (K12 E. coli; [1]): 8.1 (6.5-9.9) μg/ml
RGRKSSRRKK [Pep-1, RGRKSSRRKK (SEQ ID NO:2)] | – | 2.4 (2.2-2.7) μg/ml | some low-level hemolytic activity | LC90, Free Peptide (E. coli BL21(DE3)): 2.23 µg/mL
RGRKSSRRKK-NH2 [Pep-3, RGRKSSRRKK-NH2 (SEQ ID NO:5)] | – | 1.2 (1.1-1.2) μg/ml | – | –
RGRRSSRRKK [Pep-2, RGRRSSRRKK (SEQ ID NO:3)] | – | 1.2 (1.1-1.3) μg/ml | some low-level hemolytic activity | –
RGRRSSRRKK-NH2 [Pep-4, RGRRSSRRKK-NH2 (SEQ ID NO:6)] | – | – | some low-level hemolytic activity | LC90, Free Peptide (E. coli BL21(DE3)): 0.15 µg/mL
